Measurements reported in the kinase profiling compilation of Christmann-Franck et al. (2016).

Columns and labels:
Experiment in all cases: Free Choice Kinase Assay Projects, Flashplate
[1] = biological target: CDK2 CCNA2 (human) (UniProt P24941+P20248); conditions: compound 10.0 µM; ATP 0.3 µM
[2] = biological target: EGFR (human) (UniProt P00533); conditions: compound 10.0 µM; ATP 0.3 µM
[3] = biological target: AURKB (human) (UniProt Q96GD4); conditions: compound 10.0 µM; ATP 10 µM
[4] = biological target: NUAK1 (human) (UniProt O60285); conditions: compound 10.0 µM; ATP 1 µM
[5] = biological target: KDR (human) (UniProt P35968); conditions: compound 10.0 µM; ATP 1 µM
[6] = biological target: MAPK10 (human) (UniProt P53779); conditions: compound 10.0 µM; ATP 0.3 µM
[7] = biological target: TEK (human) (UniProt Q02763); conditions: compound 10.0 µM; ATP 1 µM
[8] = biological target: PLK4 (human) (UniProt O00444); conditions: compound 10.0 µM; ATP 0.3 µM
[9] = biological target: EPHB4 (human) (UniProt P54760); conditions: compound 10.0 µM; ATP 1 µM
[10] = biological target: PTK2 (human) (UniProt Q05397); conditions: compound 10.0 µM; ATP 1 µM
[11] = biological target: ERBB2 (human) (UniProt P04626); conditions: compound 10.0 µM; ATP 1 µM
[12] = biological target: MAPK14 (human) (UniProt Q16539); conditions: compound 10.0 µM; ATP 1 µM
[13] = biological target: CSNK2A1 (human) (UniProt P68400); conditions: compound 10.0 µM; ATP 0.1 µM
[14] = biological target: CDK4 CCND1 (human) (UniProt P11802+P24385); conditions: compound 10.0 µM; ATP 3 µM
[15] = biological target: IGF1R (human) (UniProt P08069); conditions: compound 10.0 µM; ATP 1 µM
[16] = biological target: AXL (human) (UniProt P30530); conditions: compound 10.0 µM; ATP 0.3 µM
[17] = biological target: MET (human) (UniProt P08581); conditions: compound 10.0 µM; ATP 0.3 µM
[18] = biological target: AKT1 (human) (UniProt P31749); conditions: compound 10.0 µM; ATP 3 µM
[19] = biological target: AURKA (human) (UniProt O14965); conditions: compound 10.0 µM; ATP 10 µM
[20] = biological target: PDGFRB (human) (UniProt P09619); conditions: compound 10.0 µM; ATP 0.3 µM
[21] = biological target: MAP3K8 (human) (UniProt P41279); conditions: compound 10.0 µM; ATP 3 µM
[22] = biological target: PLK1 (human) (UniProt P53350); conditions: compound 10.0 µM; ATP 1 µM
[23] = biological target: SRC (human) (UniProt P12931); conditions: compound 10.0 µM; ATP 0.3 µM

Sequence of MAPK10 (human) (P53779 whole entry, looked up): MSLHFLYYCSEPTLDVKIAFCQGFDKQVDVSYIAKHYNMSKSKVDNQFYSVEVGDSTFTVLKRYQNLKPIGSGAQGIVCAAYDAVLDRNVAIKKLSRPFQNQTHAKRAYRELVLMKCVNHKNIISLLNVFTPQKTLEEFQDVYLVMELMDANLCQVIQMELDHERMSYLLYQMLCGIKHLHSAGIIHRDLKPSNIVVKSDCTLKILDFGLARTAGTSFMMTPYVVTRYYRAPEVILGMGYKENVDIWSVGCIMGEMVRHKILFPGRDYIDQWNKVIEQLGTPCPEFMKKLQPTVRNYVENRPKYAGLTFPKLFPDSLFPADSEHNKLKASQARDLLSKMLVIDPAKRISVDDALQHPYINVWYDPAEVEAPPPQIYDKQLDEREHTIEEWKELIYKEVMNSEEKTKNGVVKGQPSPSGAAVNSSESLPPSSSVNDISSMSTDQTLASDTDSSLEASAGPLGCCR
Sequence of MAP3K8 (human) (P41279 whole entry, looked up): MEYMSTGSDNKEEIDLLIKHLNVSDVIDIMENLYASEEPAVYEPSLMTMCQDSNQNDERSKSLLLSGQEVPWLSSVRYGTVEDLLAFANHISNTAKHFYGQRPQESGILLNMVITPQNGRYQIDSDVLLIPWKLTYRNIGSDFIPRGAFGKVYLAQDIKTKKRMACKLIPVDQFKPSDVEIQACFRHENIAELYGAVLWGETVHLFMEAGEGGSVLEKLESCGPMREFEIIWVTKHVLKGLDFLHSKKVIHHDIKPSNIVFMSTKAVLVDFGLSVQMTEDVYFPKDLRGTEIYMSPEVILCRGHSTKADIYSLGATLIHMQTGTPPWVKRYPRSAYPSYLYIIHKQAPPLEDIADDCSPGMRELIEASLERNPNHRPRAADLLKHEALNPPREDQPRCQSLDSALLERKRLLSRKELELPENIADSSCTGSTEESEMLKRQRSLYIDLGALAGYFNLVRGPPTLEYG
Sequence of CDK2 CCNA2 (human) (P20248 whole entry, looked up, other chains not shown): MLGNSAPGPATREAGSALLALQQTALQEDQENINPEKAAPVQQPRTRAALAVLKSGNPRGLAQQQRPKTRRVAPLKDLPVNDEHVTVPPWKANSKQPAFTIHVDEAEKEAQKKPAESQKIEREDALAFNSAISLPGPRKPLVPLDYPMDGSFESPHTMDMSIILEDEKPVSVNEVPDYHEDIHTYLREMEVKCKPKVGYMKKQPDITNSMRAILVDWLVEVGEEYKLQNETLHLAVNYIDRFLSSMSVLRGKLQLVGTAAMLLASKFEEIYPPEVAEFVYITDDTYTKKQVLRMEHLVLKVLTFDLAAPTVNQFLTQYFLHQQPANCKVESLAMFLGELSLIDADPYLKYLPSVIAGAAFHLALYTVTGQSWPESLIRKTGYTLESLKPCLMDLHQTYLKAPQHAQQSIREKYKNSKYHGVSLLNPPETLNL
Sequence of CDK4 CCND1 (human) (P11802 whole entry, looked up): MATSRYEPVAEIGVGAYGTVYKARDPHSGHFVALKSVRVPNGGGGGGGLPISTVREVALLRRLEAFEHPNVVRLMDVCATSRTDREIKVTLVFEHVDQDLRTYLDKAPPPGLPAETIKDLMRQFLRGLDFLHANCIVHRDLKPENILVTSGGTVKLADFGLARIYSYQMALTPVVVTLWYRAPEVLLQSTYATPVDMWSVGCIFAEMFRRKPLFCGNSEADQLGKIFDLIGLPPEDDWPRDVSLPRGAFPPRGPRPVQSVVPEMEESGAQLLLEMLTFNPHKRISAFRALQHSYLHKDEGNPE
Sequence of CDK4 CCND1 (human) (P24385 whole entry, looked up): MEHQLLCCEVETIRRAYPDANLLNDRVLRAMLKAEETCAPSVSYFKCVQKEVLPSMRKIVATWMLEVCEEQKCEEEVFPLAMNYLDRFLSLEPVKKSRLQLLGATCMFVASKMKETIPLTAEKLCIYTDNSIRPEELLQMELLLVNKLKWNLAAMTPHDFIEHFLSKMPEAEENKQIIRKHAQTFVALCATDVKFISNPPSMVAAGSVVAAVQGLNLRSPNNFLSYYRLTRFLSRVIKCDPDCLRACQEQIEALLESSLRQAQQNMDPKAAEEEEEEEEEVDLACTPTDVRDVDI
Sequence of CSNK2A1 (human) (P68400 whole entry, looked up): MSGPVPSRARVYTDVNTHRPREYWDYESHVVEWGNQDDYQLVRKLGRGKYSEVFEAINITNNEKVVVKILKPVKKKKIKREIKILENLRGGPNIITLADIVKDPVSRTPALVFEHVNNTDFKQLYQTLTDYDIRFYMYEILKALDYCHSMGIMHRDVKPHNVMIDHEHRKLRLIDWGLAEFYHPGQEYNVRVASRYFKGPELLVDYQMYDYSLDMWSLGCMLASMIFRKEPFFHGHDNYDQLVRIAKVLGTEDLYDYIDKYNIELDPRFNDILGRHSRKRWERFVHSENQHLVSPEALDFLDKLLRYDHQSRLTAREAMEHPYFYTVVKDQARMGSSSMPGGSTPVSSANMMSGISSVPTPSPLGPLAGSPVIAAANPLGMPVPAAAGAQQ
Sequence of MAPK14 (human) (Q16539 whole entry, looked up): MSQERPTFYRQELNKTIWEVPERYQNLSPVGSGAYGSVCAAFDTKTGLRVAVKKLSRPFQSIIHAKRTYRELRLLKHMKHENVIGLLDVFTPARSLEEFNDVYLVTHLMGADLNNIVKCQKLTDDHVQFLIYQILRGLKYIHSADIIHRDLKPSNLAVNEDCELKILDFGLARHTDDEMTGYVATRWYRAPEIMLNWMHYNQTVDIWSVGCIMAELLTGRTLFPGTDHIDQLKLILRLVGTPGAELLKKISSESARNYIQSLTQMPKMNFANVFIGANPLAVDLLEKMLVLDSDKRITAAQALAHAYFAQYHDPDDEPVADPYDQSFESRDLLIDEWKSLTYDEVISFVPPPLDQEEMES
Sequence of AURKB (human) (Q96GD4 whole entry, looked up): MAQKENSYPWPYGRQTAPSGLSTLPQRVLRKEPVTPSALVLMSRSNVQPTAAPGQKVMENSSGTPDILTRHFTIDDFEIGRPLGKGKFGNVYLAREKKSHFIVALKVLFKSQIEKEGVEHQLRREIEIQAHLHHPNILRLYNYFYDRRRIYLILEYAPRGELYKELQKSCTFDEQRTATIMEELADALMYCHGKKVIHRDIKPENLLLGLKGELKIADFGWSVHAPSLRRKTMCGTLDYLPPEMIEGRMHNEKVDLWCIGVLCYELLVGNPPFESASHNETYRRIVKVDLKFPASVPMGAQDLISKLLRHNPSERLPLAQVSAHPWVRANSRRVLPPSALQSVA
Sequence of EGFR (human) (P00533 whole entry, looked up): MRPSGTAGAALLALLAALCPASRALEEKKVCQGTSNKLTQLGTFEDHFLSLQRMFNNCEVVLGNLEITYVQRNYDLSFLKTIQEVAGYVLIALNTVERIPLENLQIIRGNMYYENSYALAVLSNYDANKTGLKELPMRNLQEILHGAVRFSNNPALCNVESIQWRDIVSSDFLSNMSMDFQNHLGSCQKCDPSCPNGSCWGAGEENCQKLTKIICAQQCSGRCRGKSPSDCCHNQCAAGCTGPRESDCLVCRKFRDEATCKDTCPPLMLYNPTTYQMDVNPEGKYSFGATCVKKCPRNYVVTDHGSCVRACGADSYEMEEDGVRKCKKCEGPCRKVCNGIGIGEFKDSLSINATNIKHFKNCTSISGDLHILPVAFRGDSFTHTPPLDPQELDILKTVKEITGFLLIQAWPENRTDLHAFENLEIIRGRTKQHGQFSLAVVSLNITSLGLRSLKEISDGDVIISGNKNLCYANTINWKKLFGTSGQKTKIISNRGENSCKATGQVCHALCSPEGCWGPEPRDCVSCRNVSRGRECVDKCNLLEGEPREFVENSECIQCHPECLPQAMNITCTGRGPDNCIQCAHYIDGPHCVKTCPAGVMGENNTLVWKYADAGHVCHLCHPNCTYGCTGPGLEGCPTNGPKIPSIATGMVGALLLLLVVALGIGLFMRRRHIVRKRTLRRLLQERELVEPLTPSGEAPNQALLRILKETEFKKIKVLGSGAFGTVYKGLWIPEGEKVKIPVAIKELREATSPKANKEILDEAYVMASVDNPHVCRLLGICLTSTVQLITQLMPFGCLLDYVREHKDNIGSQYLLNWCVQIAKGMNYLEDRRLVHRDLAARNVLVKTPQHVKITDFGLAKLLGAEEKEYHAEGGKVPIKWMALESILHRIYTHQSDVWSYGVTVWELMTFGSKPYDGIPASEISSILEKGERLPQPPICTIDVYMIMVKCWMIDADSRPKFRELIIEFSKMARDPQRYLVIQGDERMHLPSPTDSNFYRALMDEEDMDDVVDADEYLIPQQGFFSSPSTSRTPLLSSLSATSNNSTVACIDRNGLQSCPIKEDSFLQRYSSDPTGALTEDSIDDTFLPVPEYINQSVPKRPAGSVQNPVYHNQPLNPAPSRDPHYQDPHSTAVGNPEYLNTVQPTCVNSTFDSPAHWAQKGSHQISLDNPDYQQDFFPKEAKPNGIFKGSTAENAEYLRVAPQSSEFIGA
Sequence of NUAK1 (human) (O60285 whole entry, looked up): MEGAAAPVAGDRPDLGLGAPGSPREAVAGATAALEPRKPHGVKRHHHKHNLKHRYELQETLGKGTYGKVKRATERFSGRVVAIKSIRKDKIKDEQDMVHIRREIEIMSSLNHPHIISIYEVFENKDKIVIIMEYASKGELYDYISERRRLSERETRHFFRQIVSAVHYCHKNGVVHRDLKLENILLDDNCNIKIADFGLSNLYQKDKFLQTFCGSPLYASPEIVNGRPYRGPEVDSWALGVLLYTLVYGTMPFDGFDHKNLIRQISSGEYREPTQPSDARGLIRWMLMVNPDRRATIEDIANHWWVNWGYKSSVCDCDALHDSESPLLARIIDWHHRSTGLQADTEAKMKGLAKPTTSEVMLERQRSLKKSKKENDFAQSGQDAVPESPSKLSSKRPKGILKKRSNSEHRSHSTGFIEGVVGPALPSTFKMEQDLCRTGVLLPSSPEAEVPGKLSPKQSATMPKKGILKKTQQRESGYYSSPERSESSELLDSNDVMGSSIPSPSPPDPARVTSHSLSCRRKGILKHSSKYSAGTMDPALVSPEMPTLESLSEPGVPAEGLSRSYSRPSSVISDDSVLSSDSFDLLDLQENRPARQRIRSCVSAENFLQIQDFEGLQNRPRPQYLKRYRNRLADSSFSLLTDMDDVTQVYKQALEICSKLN

Row | SMILES | residual activity [1] [%] | residual activity [2] [%] | residual activity [3] [%] | residual activity [4] [%] | residual activity [5] [%] | residual activity [6] [%] | residual activity [7] [%] | residual activity [8] [%] | residual activity [9] [%] | residual activity [10] [%] | residual activity [11] [%] | residual activity [12] [%] | residual activity [13] [%] | residual activity [14] [%] | residual activity [15] [%] | residual activity [16] [%] | residual activity [17] [%] | residual activity [18] [%] | residual activity [19] [%] | residual activity [20] [%] | other results
1 | CSc1nc(-c2ccnc(F)c2)c(-c2ccc(F)cc2)[nH]1 | 125 | 23 | 90 | 105 | 39 | 48 | 71 | 76 | 61 | 100 | 18 | 2 | 98 | 132 | 96 | 101 | 91 | 102 | 93 | 81 | residual activity [21]: 105%; residual activity [22]: 85%; residual activity [23]: 60%
2 | COc1ccc(C(=O)Nc2cc(-c3nc(SC)n(C)c3-c3ccc(F)cc3)ccn2)cc1 | 37 | 7 | 87 | 95 | 8 | 18 | 21 | 20 | 33 | 131 | 17 | 3 | 72 | 76 | 23 | 54 | 52 | 113 | 97 | 48 | residual activity [21]: 87%; residual activity [22]: 81%; residual activity [23]: 9%
3 | Fc1ccc(-c2[nH]c(SCC3CCCCC3)nc2-c2ccncc2)cc1 | 74 | 24 | 80 | 91 | 48 | 63 | 36 | 34 | 38 | 106 | 46 | 23 | 86 | 44 | 22 | 63 | 73 | 56 | 46 | 81 | residual activity [21]: 73%; residual activity [22]: 83%; residual activity [23]: 38%
4 | CC(Nc1cc(-c2nc(SCc3ccccc3)[nH]c2-c2ccc(F)cc2)ccn1)c1ccccc1 (stereo not given) | 17 | 16 | 58 | 43 | 39 | 20 | 13 | 17 | 31 | 82 | 21 | 3 | 78 | 27 | 20 | 44 | 43 | 66 | 64 | 45 | residual activity [21]: 50%; residual activity [22]: 38%; residual activity [23]: 14%
5 | On1c(CCc2ccccc2)nc(-c2ccncc2)c1-c1ccc(F)cc1 | 54 | 1 | 41 | 100 | 4 | 14 | 18 | 16 | 32 | 87 | 2 | 0 | 82 | 84 | 17 | 79 | 44 | 144 | 44 | 37 | residual activity [21]: 78%; residual activity [22]: 100%; residual activity [23]: 4%

Continued, in another order:

Row | residual activity [1] [%] | residual activity [2] [%] | residual activity [3] [%] | residual activity [4] [%] | residual activity [5] [%] | residual activity [6] [%] | residual activity [7] [%] | residual activity [8] [%] | residual activity [9] [%] | residual activity [10] [%] | residual activity [11] [%] | residual activity [12] [%] | residual activity [13] [%] | residual activity [14] [%] | residual activity [15] [%] | residual activity [16] [%] | residual activity [17] [%] | residual activity [18] [%] | residual activity [19] [%] | residual activity [20] [%] | SMILES | other results
6 | 72 | 24 | 78 | 77 | 45 | 81 | 51 | 56 | 48 | 95 | 41 | 41 | 96 | 59 | 43 | 84 | 66 | 122 | 75 | 80 | Fc1ccc(-c2[nH]c(SCCc3ccccc3)nc2-c2ccncc2)cc1 | residual activity [21]: 69%; residual activity [22]: 93%; residual activity [23]: 43%
7 | 32 | 2 | 32 | 45 | 17 | 11 | 6 | 5 | 21 | 82 | 3 | 0 | 73 | 36 | 16 | 61 | 25 | 75 | 38 | 34 | Fc1ccc(-c2[nH]c(/C=C/c3ccccc3)nc2-c2ccncc2)cc1 | residual activity [21]: 35%; residual activity [22]: 39%; residual activity [23]: 8%
8 | 90 | 2 | 66 | 106 | 3 | 12 | 10 | 57 | 18 | 71 | 2 | 1 | 93 | 102 | 68 | 80 | 45 | 110 | 53 | 16 | N#CCSc1nc(-c2ccncc2)c(-c2ccc(F)cc2)[nH]1 | residual activity [21]: 101%; residual activity [22]: 86%; residual activity [23]: 8%
9 | 64 | 49 | 63 | 94 | 51 | 64 | 21 | 33 | 56 | 122 | 31 | 11 | 71 | 87 | 33 | 85 | 54 | 147 | 78 | 54 | CSc1ccc(CSc2nc(-c3ccncc3)c(-c3ccc(Br)cc3)[nH]2)cc1 | residual activity [21]: 79%; residual activity [22]: 94%; residual activity [23]: 30%
10 | 54 | 11 | 74 | 108 | 42 | 46 | 32 | 38 | 44 | 128 | 11 | 6 | 90 | 79 | 49 | 96 | 71 | 137 | 74 | 64 | Oc1ccccc1CSc1nc(-c2ccncc2)c(-c2ccc(F)cc2)[nH]1 | residual activity [21]: 91%; residual activity [22]: 104%; residual activity [23]: 32%
